# Measured values reported in patent publication US9920063B2, “Melampomagnolide B derivatives” (Board of Trustees of the University of Arkansas, priority 2013, dated 2018).
# Entries after “also recorded” stand apart in the source; their conditions may differ.
# System: M9 ENL cells
# Test: not given
# Settings: M9ENL AML cell lines; 24 hours of drug exposure
row,Structure (SMILES),EC50 [µM]
1,C=C1C(=O)O[C@H]2[C@H]1CC/C(COC(=O)c1cc3cc(OC)ccc3[nH]1)=C\CC[C@@]1(C)O[C@@H]21 [BS-2-01],2.2
2,C=C1C(=O)O[C@H]2[C@H]1CC/C(COC(=O)c1ccc(Cl)nc1)=C\CC[C@@]1(C)O[C@@H]21 [JVM 340],11

# Same assay, conditions: M9 ENL cells; lowest concentration tested (5, 10 and 20 μM tested)
row,Structure (SMILES),Reduction of cell viability
1,C=C1C(=O)O[C@H]2[C@H]1CC/C(COC(=O)N1CCC(F)(F)CC1)=C\CC[C@@]1(C)O[C@@H]21 [JVM 2-66],greater than 50%
2,C=C1C(=O)O[C@H]2[C@H]1CC/C(COC(=O)OCCN1CCOCC1)=C\CC[C@@]1(C)O[C@@H]21 [JVM 2-60],greater than 50%
3,C=C1C(=O)O[C@H]2[C@H]1CC/C(COC(=O)OCCN1CCCC1)=C\CC[C@@]1(C)O[C@@H]21 [JVM 2-59],greater than 50%
4,C=C1C(=O)O[C@H]2[C@H]1CC/C(COC(=O)CCC(=O)N1CCC(C)CC1)=C\CC[C@@]1(C)O[C@@H]21 [JVM 2-70],greater than 50%

# Same assay, conditions: M9 cell lines
row,Structure (SMILES),Fold greater cytotoxicity than PTL [fold]
1,"C=C1C(=O)O[C@H]2[C@H]1CC/C(COC(=O)c1ccc3ccccc3c1)=C\CC[C@@]1(C)O[C@@H]21 [JVM 3-36, ((1aR,7aS,10aS,10bS,E)-1a-methyl-8-methylene-9-oxo-1a,2,3,6,7,7a,8,9,10a,10b-decahydrooxireno[2′,3′:9,10]cycodeca[1,2-b]furan-5-yl)methyl 2-naphthoate]",3

# System: M9 ENL cells
# Test: cells
# Settings: 24 h
# Experimental: Carbamate and carbonate derivatives of MMB were also screened for activity against M9 ENL cells at concentrations of 5, 10 and 20 μM (FIG. 10). […] Additionally, succinic amide derivatives of MMB were screened for activity against M9 ENL cells at concentrations of 5, 10 and 20 μM (FIG. 11).
# Ester and amide derivatives of melampomagnolide B were screened for anti-leukemic activity against M9ENL AML cell lines (FIG. 12; FIG. 14; FIG. 15; FIG. 16). For each compound, in vitro cell culture studies were performed in which a range of concentrations (0.25-20 μM) was tested for cytotoxicity against leukemia cell lines, primary leukemia specimens and normal bone marrow controls.
row,Structure (SMILES),EC50 [µM]
1,C=C1C(=O)O[C@H]2[C@H]1CC/C(C(=O)N1CCC(C)CC1)=C\CC[C@@]1(C)O[C@@H]21 [JVM 3-51],12
2,C=C1C(=O)O[C@H]2[C@H]1CC/C(C(=O)N1CCC(F)(F)CC1)=C\CC[C@@]1(C)O[C@@H]21 [JVM 3-50],3.5
3,C=C1C(=O)O[C@H]2[C@H]1CC/C(COC(=O)c1ccc(Br)cc1)=C\CC[C@@]1(C)O[C@@H]21 [JVM 3-30],3.3
4,C=C1C(=O)O[C@H]2[C@H]1CC/C(C(=O)N1CCN(C)CC1)=C\CC[C@@]1(C)O[C@@H]21 [JVM 3-46],28
5,C=C1C(=O)O[C@H]2[C@H]1CC/C(COC(=O)c1ccc(Cl)cc1)=C\CC[C@@]1(C)O[C@@H]21 [JVM 3-41],13
6,C=C1C(=O)O[C@H]2[C@H]1CC/C(COC(=O)c1cc(OC)c(OC)c(OC)c1)=C\CC[C@@]1(C)O[C@@H]21 [JVM 3-22],4.7
7,C=C1C(=O)O[C@H]2[C@H]1CC/C(COC(=O)c1ccc(OC)cc1OC)=C\CC[C@@]1(C)O[C@@H]21 [JVM 3-44],3.5
8,"C=C1C(=O)O[C@H]2[C@H]1CC/C(COC(=O)c1ccc3ccccc3c1)=C\CC[C@@]1(C)O[C@@H]21 [JVM 3-36, ((1aR,7aS,10aS,10bS,E)-1a-methyl-8-methylene-9-oxo-1a,2,3,6,7,7a,8,9,10a,10b-decahydrooxireno[2′,3′:9,10]cycodeca[1,2-b]furan-5-yl)methyl 2-naphthoate]",1.7
9,C=C1C(=O)O[C@H]2[C@H]1CC/C(C(=O)n1ccnc1C)=C\CC[C@@]1(C)O[C@@H]21 [JVM 3-57],5.9
10,C=C1C(=O)O[C@H]2[C@H]1CC/C(C(=O)N1CCCCC1)=C\CC[C@@]1(C)O[C@@H]21 [JVM 3-52],8.3
11,C=C1C(=O)O[C@H]2[C@H]1CC/C(COC(=O)c1cccc3ccccc13)=C\CC[C@@]1(C)O[C@@H]21 [JVM 3-38],2.9
12,C=C1C(=O)O[C@H]2[C@H]1CC/C(COC(=O)c1ccc(C#N)cc1)=C\CC[C@@]1(C)O[C@@H]21 [JVM 3-39],11

# System: panel of 60 human cancer cell lines
# Test: Screen against a panel of 60 human tumor cell lines (single dose and five dose), panel and sub-panel statements
# Type: cell-based
# Settings: all human tumor cell lines, with the exception of the leukemia cell line subpanel
row,Structure (SMILES),Growth inhibition compared to PTL (1) and DMAPT (2)
1,"C=C1C(=O)O[C@H]2[C@H]1CC/C(COC(=O)N1CCC(F)(F)CC1)=C\CC[C@@]1(C)O[C@@H]21 [Compound 6a, ((1aR,7aS,10aS,10bS,E)-1a-methyl-8-methylene-9-oxo-1a,2,3,6,7,7a,8,9,10a,10b-decahydrooxireno[2′,3′:9,10]cyclodeca[1,2-b]furan-5-yl)methyl-4,4-difluoropiperidine-1-carboxylate]",generally exhibited improved growth inhibition against all human tumor cell lines when compared to PTL (1) and DMAPT (2)
2,"C=C1C(=O)O[C@H]2[C@H]1CC/C(COC(=O)Nc1n[nH]c(SC)n1)=C\CC[C@@]1(C)O[C@@H]21 [Compound 6e, ((1aR,7aS,10aS,10bS,E)-1a-methyl-8-methylene-9-oxo-1a,2,3,6,7,7a,8,9,10a,10b-decahydrooxireno[2′,3′:9,10]cyclodeca[1,2-b]furan-5-yl)methyl-(5-(methylthio)-1H-1,2,4-triazol-3-yl)carbamate]",generally exhibited improved growth inhibition against all human tumor cell lines when compared to PTL (1) and DMAPT (2)

# Same assay, conditions: single concentration 10^−5 M; more than 60% growth inhibition in at least eight cell lines of the panel
row,Structure (SMILES),Outcome of initial single dose screening
1,C=C1C(=O)O[C@H]2[C@H]1CC/C(COC(=O)N1CCC(F)(F)CC1)=C\CC[C@@]1(C)O[C@@H]21 [JVM 2-66],selected for a five-dose screening
2,"C=C1C(=O)O[C@H]2[C@H]1CC/C(COC(=O)NCCN1CCOCC1)=C\CC[C@@]1(C)O[C@@H]21 [Compound 6d, ((1aR,7aS,10aS,10bS,E)-1a-methyl-8-methylene-9-oxo-1a,2,3,6,7,7a,8,9,10a,10b-decahydrooxireno[2′,3′:9,10]cyclodeca[1,2-b]furan-5-yl)-methyl(2-morpholinoethyl) carbamate]",selected for a five-dose screening
3,"C=C1C(=O)O[C@H]2[C@H]1CC/C(COC(=O)NCCc1ccccn1)=C\CC[C@@]1(C)O[C@@H]21 [Compound 6c, ((1aR,7aS,10aS,10bS,E)-1a-methyl-8-methylene-9-oxo-1a,2,3,6,7,7a,8,9,10a,10b-decahydrooxireno[2′,3′:9,10]cyclodeca[1,2-b]furan-5-yl)methyl-(2-(pyridin-2-yl)ethyl)carbamate]",selected for a five-dose screening
4,"C=C1C(=O)O[C@H]2[C@H]1CC/C(COC(=O)NCCN1CCCC1)=C\CC[C@@]1(C)O[C@@H]21 [Compound 6b, ((1aR,7aS,10aS,10bS,E)-1a-methyl-8-methylene-9-oxo-1a,2,3,6,7,7a,8,9,10a,10b-decahydrooxireno[2′,3′:9,10]cyclodeca[1,2-b]furan-5-yl)methyl-(2-(pyrrolidin-1-yl)ethyl)carbamate]",selected for a five-dose screening
5,C=C1C(=O)O[C@H]2[C@H]1CC/C(COC(=O)c1cc3cc(OC)ccc3[nH]1)=C\CC[C@@]1(C)O[C@@H]21 [BS-2-01],selected for five dose screening
6,C=C1C(=O)O[C@H]2[C@H]1CC/C(COC(=S)n1ccnc1)=C\CC[C@@]1(C)O[C@@H]21 [JVM 66],selected for a five-dose screening
7,C=C1C(=O)O[C@H]2[C@H]1CC/C(COC(=O)NC)=C\CC[C@@]1(C)O[C@@H]21 [JVM 2-57],selected for a five-dose screening
8,C=C1C(=O)OC2C1CCC(COC(=O)c1cc3ccccc3s1)=CCCC1(C)OC21 (stereo not drawn) [BS-2-65],selected for five dose screening
9,C=C1C(=O)O[C@H]2[C@H]1CC/C(COC(=O)OCCCN1CCCCC1)=C\CC[C@@]1(C)O[C@@H]21 [JVM 2-26],selected for a five-dose screening
10,C=C1C(=O)O[C@H]2[C@H]1CC/C(COC(=O)OC)=C\CC[C@@]1(C)O[C@@H]21 [JVM 2-40],selected for a five-dose screening
11,C=C1C(=O)O[C@H]2[C@H]1CC/C(COC(=O)NCCO)=C\CC[C@@]1(C)O[C@@H]21 [JVM 2-50],selected for a five-dose screening
12,C=C1C(=O)O[C@H]2[C@H]1CC/C(COC(=O)N1CCN(C)CC1)=C\CC[C@@]1(C)O[C@@H]21 [JVM 2-44],selected for a five-dose screening
13,C=C1C(=O)O[C@H]2[C@H]1CC/C(COC(=O)OCCN(C)C)=C\CC[C@@]1(C)O[C@@H]21 [JVM 2-35],selected for a five-dose screening
14,"C=C1C(=O)O[C@H]2[C@H]1CC/C(COC(=O)Nc1n[nH]c(SC)n1)=C\CC[C@@]1(C)O[C@@H]21 [Compound 6e, ((1aR,7aS,10aS,10bS,E)-1a-methyl-8-methylene-9-oxo-1a,2,3,6,7,7a,8,9,10a,10b-decahydrooxireno[2′,3′:9,10]cyclodeca[1,2-b]furan-5-yl)methyl-(5-(methylthio)-1H-1,2,4-triazol-3-yl)carbamate]",selected for a five-dose screening
15,C=C1C(=O)O[C@H]2[C@H]1CC/C(COC(=O)CCC(=O)NCc1ccc(Cl)nc1)=C\CC[C@@]1(C)O[C@@H]21 [JVM 96],selected for a five-dose screening
16,C=C1C(=O)OC2C1CCC(COC(=O)c1cc3cc(Cl)ccc3[nH]1)=CCCC1(C)OC21 (stereo not drawn) [BS-2-30],selected for five dose screening
17,C=C1C(=O)O[C@H]2[C@H]1CC/C(COC(=O)CCC(=O)N1CCC(C)CC1)=C\CC[C@@]1(C)O[C@@H]21 [JVM 2-70],selected for a five-dose screening
18,C=C1C(=O)O[C@H]2[C@H]1CC/C(COC(=O)NCCN1CCCCC1)=C\CC[C@@]1(C)O[C@@H]21 [JVM 2-13],selected for a five-dose screening
19,C=C1C(=O)OC2C1CCC(COC(=O)c1cc3cc(F)ccc3[nH]1)=CCCC1(C)OC21 (stereo not drawn) [BS-2-68],selected for five dose screening
20,C=C1C(=O)O[C@H]2[C@H]1CC/C(COC(=O)NCCCCCCO)=C\CC[C@@]1(C)O[C@@H]21 [JVM 2-31],selected for a five-dose screening

# Same assay, conditions: single concentration of 10^−5 M
row,Structure (SMILES),Activity in NCI single dose screen
1,C=C1C(=O)O[C@H]2[C@H]1CC/C(CNC(=O)Cc1c[nH]c3ccccc13)=C\CC[C@@]1(C)O[C@@H]21 [JVM 4-14],"potent activity against all leukemia lines tested as well as some NSCLC, colon cancer, melanoma, renal cancer and breast cancer cell lines; also recorded: moderate activity against CNS cancer and ovarian cancer"
2,C=C1C(=O)O[C@H]2[C@H]1CC/C(CNC(=O)c1cc3ccccc3[nH]1)=C\CC[C@@]1(C)O[C@@H]21 [JVM 4-19],"did not show potent activity against leukemia cell lines; also recorded: potent activity against the majority of colon cancer, melanoma, renal cancer, prostate cancer and breast cancer cell lines tested; also recorded: moderate activity against NSCLC, CNS cancer and ovarian cancer cell lines"

# Same assay, conditions: sub-panel of human leukemia cells
row,Structure (SMILES),Antileukemic activity compared to parent compound MMB
1,"C=C1C(=O)O[C@H]2[C@H]1CC/C(COC(=O)N1CCC(F)(F)CC1)=C\CC[C@@]1(C)O[C@@H]21 [Compound 6a, ((1aR,7aS,10aS,10bS,E)-1a-methyl-8-methylene-9-oxo-1a,2,3,6,7,7a,8,9,10a,10b-decahydrooxireno[2′,3′:9,10]cyclodeca[1,2-b]furan-5-yl)methyl-4,4-difluoropiperidine-1-carboxylate]",more potent than the parent compound
2,"C=C1C(=O)O[C@H]2[C@H]1CC/C(COC(=O)Nc1n[nH]c(SC)n1)=C\CC[C@@]1(C)O[C@@H]21 [Compound 6e, ((1aR,7aS,10aS,10bS,E)-1a-methyl-8-methylene-9-oxo-1a,2,3,6,7,7a,8,9,10a,10b-decahydrooxireno[2′,3′:9,10]cyclodeca[1,2-b]furan-5-yl)methyl-(5-(methylthio)-1H-1,2,4-triazol-3-yl)carbamate]",more potent than the parent compound
